According to PMC10149896 (Acta Pharmaceutica Sinica. B, 2022):

Tests used:
UGT71E5 = molecular target: T1, UGT71E5 (Carthamus tinctorius, UniProt A0A1P8C3B1); assay: HPLC-MS conversion; format: biochemical; conditions: 0.4 mmol/L acceptor, 0.8 mmol/L UDP-Glc, pH 7.4
T1 sequence (A0A1P8C3B1 1-480): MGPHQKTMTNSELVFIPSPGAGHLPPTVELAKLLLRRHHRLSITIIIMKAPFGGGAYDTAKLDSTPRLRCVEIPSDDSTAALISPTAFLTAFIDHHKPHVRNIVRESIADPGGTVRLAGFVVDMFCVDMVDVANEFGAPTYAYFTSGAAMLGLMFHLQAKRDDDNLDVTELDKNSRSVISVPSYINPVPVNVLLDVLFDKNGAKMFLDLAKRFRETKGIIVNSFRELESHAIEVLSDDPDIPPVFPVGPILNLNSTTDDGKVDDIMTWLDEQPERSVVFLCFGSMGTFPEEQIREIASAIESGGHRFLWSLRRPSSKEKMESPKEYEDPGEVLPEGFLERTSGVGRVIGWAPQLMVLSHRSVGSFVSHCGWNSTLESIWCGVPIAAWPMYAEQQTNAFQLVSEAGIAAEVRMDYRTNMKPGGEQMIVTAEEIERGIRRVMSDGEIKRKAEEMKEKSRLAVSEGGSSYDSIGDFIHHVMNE

DoBBS8 = assay: HPLC quantification of dihydroresveratrol, nonlinear regression; format: biochemical, Dendrobium officinale; conditions: malonyl-CoA 2.0 mmol/L fixed; 30 °C, 30 min

SMILES | conversion rate (UGT71E5) [%] | Km (DoBBS8) [µM]
Oc1ccc(CCc2cc(O)cc(O)c2)cc1 [compound 1, dihydro-resveratrol] | 94 | –
CC(C)(COP(=O)(O)OP(=O)(O)OC[C@H]1O[C@@H](n2cnc3c(N)ncnc32)[C@H](O)[C@@H]1OP(=O)(O)O)[C@@H](O)C(=O)NCCC(=O)NCCSC(=O)CCc1ccc(O)cc1 [p-hydroxyphenylpropionyl-CoA] | – | 61.8
